From BindingDB's records for doi:10.7270/Q2891498 (Nmmlsc, 2009)

Molecular target: T1, GTPase KRas [1-37] (Homo sapiens, UniProt G3V5T7)
T1 construct: 1-37
Experiment: Ras wt fluorescent nucleotide binding blockade – biochemical, additional analogs, wildtype, multiplex flow cytometry, Ki, SAR follow-up (AID 2038)

T1 sequence (G3V5T7 whole entry): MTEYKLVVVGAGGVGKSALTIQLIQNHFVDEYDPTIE

Ki: 5.85 µM
Structure (SMILES): O=C1N=c2c(Br)cccc2=C1c1[nH]c2ccccc2c1NO [7-bromanyl-3-[3-(oxidanylamino)-1H-indol-2-yl]indol-2-one]
